The text below walks through data of patent publication US7939558B2, “Compounds having activity in increasing ion transport by mutant-CFTR and uses thereof” (The Regents of the University of California, priority 2004, dated 2011).

ΔF508-CFTR, sequence (P13569 with tags, fused parts or gaps DEL508-508): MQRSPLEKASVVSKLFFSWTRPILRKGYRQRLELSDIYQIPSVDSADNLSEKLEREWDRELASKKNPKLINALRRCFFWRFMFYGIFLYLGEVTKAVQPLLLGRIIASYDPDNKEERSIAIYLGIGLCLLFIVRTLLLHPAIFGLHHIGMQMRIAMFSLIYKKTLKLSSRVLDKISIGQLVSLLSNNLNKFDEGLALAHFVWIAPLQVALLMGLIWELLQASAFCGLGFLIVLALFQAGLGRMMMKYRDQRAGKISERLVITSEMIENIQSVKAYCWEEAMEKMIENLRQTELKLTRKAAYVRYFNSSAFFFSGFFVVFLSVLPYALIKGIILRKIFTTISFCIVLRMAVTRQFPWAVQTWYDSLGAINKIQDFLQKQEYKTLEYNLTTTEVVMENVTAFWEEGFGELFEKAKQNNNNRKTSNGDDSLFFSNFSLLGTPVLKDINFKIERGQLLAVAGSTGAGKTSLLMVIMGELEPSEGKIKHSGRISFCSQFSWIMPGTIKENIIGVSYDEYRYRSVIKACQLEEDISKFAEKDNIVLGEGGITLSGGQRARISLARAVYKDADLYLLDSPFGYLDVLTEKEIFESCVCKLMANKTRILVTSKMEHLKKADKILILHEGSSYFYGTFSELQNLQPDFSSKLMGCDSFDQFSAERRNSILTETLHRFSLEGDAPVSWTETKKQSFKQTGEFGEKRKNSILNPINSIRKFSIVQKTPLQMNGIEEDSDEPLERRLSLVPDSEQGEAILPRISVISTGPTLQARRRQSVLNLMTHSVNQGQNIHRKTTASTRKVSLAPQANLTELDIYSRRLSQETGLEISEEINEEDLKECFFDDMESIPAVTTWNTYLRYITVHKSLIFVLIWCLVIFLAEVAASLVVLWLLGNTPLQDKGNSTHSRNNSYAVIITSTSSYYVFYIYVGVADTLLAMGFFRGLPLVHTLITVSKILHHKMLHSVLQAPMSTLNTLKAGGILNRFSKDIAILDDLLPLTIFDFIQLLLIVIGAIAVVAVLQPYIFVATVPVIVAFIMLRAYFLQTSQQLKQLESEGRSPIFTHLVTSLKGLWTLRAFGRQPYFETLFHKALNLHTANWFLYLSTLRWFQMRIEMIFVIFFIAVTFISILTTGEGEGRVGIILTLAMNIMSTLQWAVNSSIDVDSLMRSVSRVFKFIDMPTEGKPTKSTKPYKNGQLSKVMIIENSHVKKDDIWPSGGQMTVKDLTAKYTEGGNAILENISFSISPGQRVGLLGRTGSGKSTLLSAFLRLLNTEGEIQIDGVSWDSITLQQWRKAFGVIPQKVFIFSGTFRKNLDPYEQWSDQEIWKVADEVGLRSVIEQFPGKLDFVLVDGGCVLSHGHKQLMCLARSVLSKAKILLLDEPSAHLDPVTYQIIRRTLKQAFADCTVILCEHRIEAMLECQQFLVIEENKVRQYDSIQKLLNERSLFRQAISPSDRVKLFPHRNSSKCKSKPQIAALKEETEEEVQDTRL

The first experiment concerns the target ΔF508-CFTR (Homo sapiens, UniProt P13569, DEL508-508). Description: Fluorescence (YFP-H148Q/I152L) I− influx assay of ΔF508-CFTR potentiator activity in FRT cells. Type of experiment: cell-based. On the set-up: expressed in transfected cells. The following applies: phenylglycine containing compounds, 27° C. 24 h, forskolin 20 μM, read-out: Ka. How it is done: Clonal populations of Fischer rat thyroid (FRT) epithelial cells stably co-expressing human ΔF508-CFTR and the high-sensitivity halide-sensing green fluorescent analog YFP-H148Q/I152L (Galietta et al., A.S. (2001) FEBS Lett. 499, 220-224) were generated by liposome transfection and limiting dilution with Zeocin/G418 selection. More than 100 clones were evaluated for high fluorescence and ΔF508-CFTR plasma membrane targeting after growth at 27° C. for 24 hours. For screening, cells were cultured on plastic in Coon's modified F12 medium supplemented with 10% fetal bovine serum, 2 mM L-glutamine, 100 U/ml penicillin, and 100 μg/ml streptomycin, and plated on black 96-well microplates (Corning-Costar 3904) at 30,000 cells/well. For short-circuit measurements cells were cultured on Snapwell permeable supports (Corning-Costar) at 500,000 cells/insert. Human nasal epithelium cells from CF patients were cultured on Snapwell inserts and allowed to differentiate in a hormone-supplemented medium (Galietta et al., Am. J. Physiol., […]). Some measurements were done using stably transfected FRT cells expressing YFP-H148Q and wildtype- or G551D-CFTR (Galietta et al., (2001) J. Biol. Chem. 276, 19723-19728). Patch clamp experiments were done on ΔF508-CFTR-expressing FRT cells plated in 35-mm Petri dishes.
Screening was carried out using a Beckman integrated system containing a 3-meter robotic arm, CO2 incubator containing microplate carousel, plate-washer, liquid handling workstation, bar code reader, delidding station, plate sealer, and two FluoStar fluorescence plate readers (Galaxy, BMG Lab Technologies), each equipped with dual syringe pumps and HQ500/20X ([…]) excitation and HQ535/30M (535±15 nm) emission filters (Chroma). Software was written in VBA (Visual Basic for Applications) to compute baseline-subtracted fluorescence slopes (giving halide influx rates).
For assay of ΔF508-CFTR potentiator activity the incubator (27° C., 90% humidity, 5% CO2/95% air) was loaded with forty-to-sixty 96-well plates containing FRT cells. After an 18-24 hour incubation plates were washed 3 times with PBS (300 μl/wash) leaving 50 μl PBS. 10 μl of PBS containing 120 μM forskolin was added, and after 5 min test compounds (0.6 μl of 0.25 mM DMSO solution) were added to each well to give 2.5 μM final compound concentrations. After 15 min, 96-well plates were transferred to a plate reader for fluorescence assay. Each well was assayed individually for I^− influx by recording fluorescence continuously (200 ms per point) for 2 seconds (baseline) and then for 12 seconds after rapid (<1 s) addition of 160 μL of isosmolar PBS in which 137 mM Cl^− was replaced by I^−. I^− influx rates were computed from initial fluorescence versus time-curve slopes (determined by 3rd order polynomial regression) after normalization for total fluorescence (background subtracted initial fluorescence). All compound plates contained negative control (DMSO vehicle alone) and positive controls (genistein, 5 μM and 50 μM). Assay analysis indicated a Z′-factor of >0.7 (Zhang et al., J. Biomol. Screen 4:67-73 (1999)).
The high-throughput screen was designed to identify compounds that activated ΔF508-CFTR when expressed at the cell plasma membrane. FRT epithelial cells co-expressing ΔF508-CFTR and a high sensitivity yellow fluorescent protein-based halide indicator were incubated at 27° C. for 24 h to permit ΔF508-CFTR plasma membrane targeting (FIG. 1, panel A). After washing, forskolin (20 μM) and test compounds (2.5 μM) were added to individual wells of 96-well plates. The I^− influx assay was carried out ˜15 min later by measurement of the time course of decreasing YFP fluorescence after creation of an inwardly-directed I^− gradient. A high concentration of forskolin was used to identify ΔF508-CFTR potentiators that may interact directly with ΔF508-CFTR rather than alter cAMP concentration. […]
For `COc1ccc(C(C(=O)Nc2ccc(C(C)C)cc2)N(C)C(=O)Cc2c[nH]c3ccccc23)cc1` (stereo not drawn) [Compound P-3, 2-[(2-1H-Indol-3-yl-acetyl)-methyl-amino]-N-(4-isopropyl-phenyl)-2-(4-methoxy-phenyl)-acetamide], the EC50 is 340 nM.
Still for that read-out and setting: next, `COc1ccc(NC(=O)C(c2ccccc2)N(C)C(=O)Cc2c[nH]c3ccccc23)cc1` (stereo not drawn) [Compound P-5, 2-[(2-1H-Indol-3-yl-acetyl)-methyl-amino]-N-(4-methoxy-phenyl)-2-phenyl-acetamide]: 700 nM; `COc1ccc(C(C(=O)Nc2ccc3c(c2)OCCO3)N(C)C(=O)Cc2c[nH]c3ccccc23)cc1` (stereo not drawn) [Compound P-10, N-(2,3-Dihydro-benzo[1,4]dioxin-6-yl)-2-[(2-1H-indol-3-yl-acetyl)-methyl-amino]-2-(4-methoxy-phenyl)-acetamide]: 2710 nM.
On the same count and under the same terms, the result for `Cc1ccc(C(NC(=O)Cc2cc3ccccc3[nH]2)C(=O)Nc2ccc3c(c2)OCCO3)cc1` (stereo not drawn) [Compound P-9, N-(2,3-Dihydro-benzo[1,4]dioxin-6-yl)-2-(2-1H-indol-2-yl-acetylamino)-2-p-tolyl-acetamide] reads 2330 nM.
For `CC(C)c1ccc(NC(=O)C(NC(=O)Cc2c[nH]c3ccccc23)c2ccccc2)cc1` (stereo not drawn) [Compound P-6, 2-(2-1H-Indol-3-yl-acetylamino)-N-(4-isopropyl-phenyl)-2-phenyl-acetamide], the EC50 is 880 nM.
Same read-out and setting: next, `CC(=O)NCC(=O)N(C)C(C(=O)Nc1ccc2c(c1)OCCO2)c1ccccc1` (stereo not drawn) [Compound P-2, 2-[(2-Acetylamino-acetyl)-methyl-amino]-N-(2,3-dihydro-benzo[1,4]dioxin-6-yl)-2-phenyl-acetamide]: 300 nM.

The experiment is the same for the next values; noted with them: sulfonamide containing compounds, 27° C. 24 h, forskolin 20 μM, read-out: Ka.
Turning to `CCc1ccccc1N(C)S(=O)(=O)c1ccc2[nH]cc(C(=O)NCCOC)c(=O)c2c1` [Compound S-43], the EC50 was 770 nM.
On the same count and under the same terms, the result for `CCN(c1ccc(F)cc1)S(=O)(=O)c1ccc2[nH]cc(C(=O)NC3CCCC3)c(=O)c2c1` [Compound S-21, 6-[Ethyl-(4-fluoro-phenyl)-sulfamoyl]-4-oxo-1,4-dihydro-quinoline-3-carboxylic acid cyclopentylamide] reads 330 nM; that for `CCCCNC(=O)c1c[nH]c2ccc(S(=O)(=O)N(CC)c3ccc(F)cc3)cc2c1=O` [Compound S-64], 1560 nM; that for `CCCCCCCCNC(=O)c1c[nH]c2ccc(S(=O)(=O)N(C)c3ccccc3OCC)cc2c1=O` [Compound S-54], 1160 nM.
The same measure, in the same setting: the result for `Cc1ccc(C)c(N(C)S(=O)(=O)c2ccc3[nH]cc(C(=O)NCc4ccccn4)c(=O)c3c2)c1` [Compound S-8] reads 130 nM; that for `Cc1ccccc1N(C)S(=O)(=O)c1ccc2[nH]cc(C(=O)NCCC(C)C)c(=O)c2c1` [Compound S-47, 6-(Methyl-o-tolyl-sulfamoyl)-4-oxo-1,4-dihydro-quinoline-3-carboxylic acid (3-methyl-butyl)-amide], 870 nM; that for `CCCCCCNC(=O)c1c[nH]c2ccc(S(=O)(=O)N(CC)c3ccccc3)cc2c1=O` [Compound S-57], 1280 nM.
As for `CCCNC(=O)c1c[nH]c2ccc(S(=O)(=O)N(C)c3ccc(C)c(C)c3)cc2c1=O` [Compound S-46], the EC50 is 840 nM.
On the same count and under the same terms, the result for `C=CCN(c1ccccc1)S(=O)(=O)c1ccc2[nH]cc(C(=O)NC3CCCCCC3)c(=O)c2c1` [Compound S-7] reads 120 nM; that for `CCOC(CNC(=O)c1c[nH]c2ccc(S(=O)(=O)N(C)c3ccc(CC)cc3)cc2c1=O)OCC` [Compound S-22], 360 nM.
On the same count and under the same terms, the result for `CCN(CC)S(=O)(=O)c1ccc2[nH]cc(C(=O)NCc3ccc4c(c3)OCO4)c(=O)c2c1` [Compound S-24] reads 380 nM; that for `C=CCN(c1ccccc1)S(=O)(=O)c1ccc2[nH]cc(C(=O)NCCCCCC)c(=O)c2c1` [Compound S-12], 190 nM; that for `C=CCN(c1ccccc1)S(=O)(=O)c1ccc2[nH]cc(C(=O)NCc3ccccn3)c(=O)c2c1` [Compound S-11], 160 nM.
On the same count and under the same terms, next, `CN(c1ccc(Cl)cc1F)S(=O)(=O)c1ccc2[nH]cc(C(=O)NCC3CCCO3)c(=O)c2c1` (stereo not drawn) [Compound S-38]: 660 nM.
`C=CCNC(=O)c1c[nH]c2ccc(S(=O)(=O)N(C)c3ccccc3CC)cc2c1=O` [Compound S-52]: the EC50 turned out to be 1140 nM.
Still for that read-out and setting: the result for `Cc1cccc(N(C)S(=O)(=O)c2ccc3[nH]cc(C(=O)NCCC4=CCCCC4)c(=O)c3c2)c1` [Compound S-29, 6-(Methyl-m-tolyl-sulfamoyl)-4-oxo-1,4-dihydro-quinoline-3-carboxylic acid (2-cyclohex-1-enyl-ethyl)-amide] reads 490 nM; that for `CCN(c1ccccc1)S(=O)(=O)c1ccc2[nH]cc(C(=O)NC(C)C)c(=O)c2c1` [Compound S-53], 1160 nM.
The same measure, in the same setting: the result for `CCN(c1ccc(F)cc1)S(=O)(=O)c1ccc2[nH]cc(C(=O)NCCCOC)c(=O)c2c1` [Compound S-50] reads 1020 nM.
As to `CCN(c1ccccc1)S(=O)(=O)c1ccc2[nH]cc(C(=O)NC3CCCCCC3)c(=O)c2c1` [Compound S-2], the EC50 was found to be 20 nM.
On the same count and under the same terms, the result for `CCc1ccccc1N(C)S(=O)(=O)c1ccc2[nH]cc(C(=O)NC(C)CC)c(=O)c2c1` (stereo not drawn) [Compound S-26] reads 440 nM; that for `CCOC(=O)C(NC(=O)c1c[nH]c2ccc(S(=O)(=O)N(C)C3CCCCC3)cc2c1=O)C(=O)OCC` [Compound S-34], 590 nM.
The same measure, in the same setting: next, `CCN(c1cccc(C)c1)S(=O)(=O)c1ccc2[nH]cc(C(=O)NCc3ccccc3OC)c(=O)c2c1` [Compound S-35]: 600 nM; `CCCNC(=O)c1c[nH]c2ccc(S(=O)(=O)N(C)c3cccc(C)c3)cc2c1=O` [Compound S-31]: 560 nM.
Still for that read-out and setting: the result for `CCN(c1cccc(C)c1)S(=O)(=O)c1ccc2[nH]cc(C(=O)NCC3CCCO3)c(=O)c2c1` (stereo not drawn) [Compound S-51] reads 1110 nM; that for `C=CCN(c1ccccc1)S(=O)(=O)c1ccc2[nH]cc(C(=O)NCCCC)c(=O)c2c1` [Compound S-6], 110 nM.
Consider `CCCCNC(=O)c1c[nH]c2ccc(S(=O)(=O)N(CC)CC)cc2c1=O` [Compound S-41], for which the EC50 worked out at 740 nM.
Still for that read-out and setting: next, `CCOc1ccccc1N(C)S(=O)(=O)c1ccc2[nH]cc(C(=O)NCC3CCCO3)c(=O)c2c1` (stereo not drawn) [Compound S-14]: 200 nM; `C=CCN(c1ccccc1)S(=O)(=O)c1ccc2[nH]cc(C(=O)NCc3ccco3)c(=O)c2c1` [Compound S-37, 6-(Allyl-phenyl-sulfamoyl)-4-oxo-1,4-dihydro-quinoline-3-carboxylic acid (furan-2-ylmethyl)-amide]: 650 nM; `CCOC(CNC(=O)c1c[nH]c2ccc(S(=O)(=O)N(C)c3ccccc3CC)cc2c1=O)OCC` [Compound S-58]: 1280 nM.
Still for that read-out and setting: next, `CCN(c1ccccc1)S(=O)(=O)c1ccc2[nH]cc(C(=O)NCc3ccco3)c(=O)c2c1` [Compound S-27]: 460 nM; `CCOCCCNC(=O)c1c[nH]c2ccc(S(=O)(=O)N(C)c3ccccc3C)cc2c1=O` [Compound S-65]: 1660 nM.
With `CCC(C)NC(=O)c1c[nH]c2ccc(S(=O)(=O)N(C)c3cccc(C)c3)cc2c1=O` (stereo not drawn) [Compound S-25, 6-(Methyl-m-tolyl-sulfamoyl)-4-oxo-1,4-dihydro-quinoline-3-carboxylic acid sec-butylamide], the EC50 is 440 nM.
Same read-out and setting: the result for `CCN(c1cccc(C)c1)S(=O)(=O)c1ccc2[nH]cc(C(=O)NCCCOC)c(=O)c2c1` [Compound S-28] reads 480 nM.
